# How the values were obtained:
# [1] = test system: OVCAR5-cisR cells; experiment: Cell viability assay (dose-response); assay type: cell-based, human
# Method: (§1) Cell viability was measured by MTS assay (Abcam, #ab197010) or by CellTiter-Glo™ assay (Promega, #G7570). Cells were seeded at 96-well plates at densities of 2000˜5000 cells per well overnight. Treatment was added to the cells at indicated concentrations for 72 h. Cell viability was measured by incubating with MTS reagent for 4 h and reading absorbance at 490 nm or incubating with CellTier-Glo™ reagent for 10 min and reading luminescence by a plate reader. Six replicates were used for each group.
# (§2) In addition, isogenic PEO1/PEO4 cell lines derived from the same patient were studied, at the time of a platinum sensitive (PEO1) and platinum resistant-recurrence (PEO4).
# (§3) Having shown decreased glucose-derived anabolism and increased fatty acid uptake in cisplatin-resistant ovarian cancer cells, whether this metabolic feature can be used for differentiation of cisplatin-resistant from cisplatin-sensitive cancer cells was explored. […] In Table 2 below, quantitation of glucose-d7 (G-d7), PA-d31, and OA-d34 are shown as area fraction of C-D signal out of total cellular area, in mean values.
# [2] = test system: PEO1 cells; experiment: Cell viability assay (dose-response); assay type: cell-based, human; conditions: PEO1 cells (sensitive)
# Method: as §1, §2, §3
# [3] = test system: SKOV3-cisR cells; experiment: Cell viability assay (dose-response); assay type: cell-based, human; conditions: SKOV3-cisR cells
# Method: as §1, §2, §3
# [4] = test system: OVCAR5 cells; experiment: Cell viability assay (dose-response); assay type: cell-based, human; conditions: OVCAR5 cells (sensitive)
# Method: as §1, §2, §3
# [5] = test system: SKOV3 cells; experiment: Cell viability assay (dose-response); assay type: cell-based, human; conditions: SKOV3 cells (sensitive)
# Method: as §1, §2, §3
# [6] = test system: PEO4 cells; experiment: Cell viability assay (dose-response); assay type: cell-based, human
# Method: as §1, §2, §3
# [7] = test system: OVCAR5-cisR cells; experiment: Isotope labeling and SRS imaging; assay type: cell-based, human; conditions: BMS 10 μM for 24 hours, 100 μM PA-d31 for 6 hours
# Method: (§4) For labeling with glucose-d7, media was replaced with glucose-free DMEM medium (Thermo Fisher Scientific, #11966025)+10% FBS+P/S supplemented with 25 mM glucose-d7 after seeding the cells in 35 mm glass-bottom dishes overnight. For labeling with FA or analogs, including PA-d31, OA-d34, and ODYA, FA or analogs were added to the culture media at final concentration of 100 μM and cells were treated for 6 h. For quantitative SRS imaging, cells on glass-bottom dishes were fixed with 10% neutral buffered formalin for 30 min and washed with PBS for 3 times. Hyperspectral SRS imaging was performed to the cells at Raman spectral region from 2100 to 2300 cm^−1.
# (§5) To identify the source of increased lipid content in cisplatin-resistant ovarian cancer cells, the contribution of de novo lipogenesis and of fatty acid uptake were examined, respectively. Using a stable isotope probing method, the level of lipogenesis was examined by feeding the cells with deuterium labeled glucose-d7. […] Quantitative analysis confirmed significant reduction of both signal intensity and relative area fraction in PEO4 cells when compared to PEO1 cells (FIG. 2B), indicating a decrease in glucose derived anabolism and de novo lipogenesis in cisplatin-resistant cells. […]
# [8] = test system: SKOV3-cisR cells; experiment: Isotope labeling and SRS imaging; assay type: cell-based, human; conditions: BMS 5 μM, 10 μM or 20 μM for 24 hours, 100 μM PA-d31 for 6 hours
# Method: as §4, §5
# [9] = test system: SKOV3-cisR cells; experiment: Large-area hyperspectral SRS imaging of lipids, single cell analysis; assay type: cell-based, human; conditions: 10 μM C-75
# Method: Hyperspectral SRS imaging was performed on a lab-built system following previously published method [8]. The laser source was a femtosecond laser (InSight™ DeepSee™, Spectra-Physics™, Santa Clara, CA, USA) operating at 80 MHz with two synchronized output beams, a tunable pump beam ranging from 680 nm to 1300 nm, and a Stokes beam fixed at 1040 nm. For imaging at the C-H vibration region (2800˜3050 cm^−1), pump beam was tuned to 798 nm. The Stokes beam was modulated at 2.3 MHz by an acousto-optic modulator (1205-C, Isomet®). After combination, both beams were chirped by two 12.7 cm long SF57 glass rods and then sent to a laser-scanning microscope. The power of pump and Stokes beam before microscope was controlled to be 20 mW and 200 mW, respectively. […]
# Lipid analysis in single cells were performed through the software CellProfiler™ [68]. […] Morphological information of each cell and lipid analysis, including LD number and intensity in single cells were measured and reported in the output results. […] For each sample, a few hundreds to a thousand of cells were analyzed.
# An SRS spectrum was extracted at each pixel from the image stack. […] Finally, quantitative characterization of lipids in terms of integrated intensity, mean intensity, area, and lipid droplet size in each individual cell was performed.
# [10] = test system: OVCAR5 xenografts; experiment: OVCAR5 xenografts in mice treated with carboplatin; assay type: in vivo; conditions: 25 mg/kg carboplatin weekly i.p. for three cycles versus saline
# Method: Xenografts were obtained through intraperitoneally implantation of 2 million OVCAR5 cells in female (6-8 weeks old) athymic nude mice (Foxn1^nu, Envigo). Two weeks after inoculation, tumor harboring mice were treated with PBS (sensitive group, n=3) or 25 mg/kg carboplatin (resistant group, n=3) via weekly i.p. injection for three cycles. Tumors were collected and weighted one week after the last cycle and frozen. For SRS imaging, tumors were sectioned at […] thickness slices by cryostat. To isolate tumor cells from tissue, PBS and carboplatin treated xenografts were mechanically and enzymatically dissociated in Dulbecco's modified Eagle's medium/F12 (Thermo Fisher Scientific) containing collagenase (300 IU/ml, Sigma-Aldrich) and hyaluronidase (300 IU/ml, Sigma-Aldrich) for 2-4 hours at 37° C. […] To determine whether lipid accumulation also occurs in vivo in platinum-treated tumors, SRS imaging of lipids was performed in OVCAR5 xenografts collected from mice treated weekly with saline or carboplatin for three weeks. Tumor growth was suppressed by carboplatin treatment (FIG. 1N). […] (FIG. 1O). The results shown in FIGS. 1P-1Q indicate heterogenous lipid accumulation and higher lipid amount in the carboplatin-treated tumors compared with the platinum-sensitive tumors. Collectively, higher level of lipid content was a metabolic feature of cisplatin-resistant ovarian cancer cells.
# [11] = test system: platinum resistant PDX model; experiment: Platinum resistant patient-derived xenograft (PDX) model; assay type: in vivo; conditions: day 14 to 37
# Method: The platinum resistant PDX model was developed as previously described. After passage through a donor animal, fresh tumor (equal size) was implanted subcutaneously (SC) in 20 female 7-8-week-old NSG mice (Jackson Labs, Cat #: JAX:00555). Tumor sizes were measured using calipers twice per week and tumor volumes were calculated according to the formula length×width^2/2. When the tumor volume reached 100 mm^3, the animals were randomized into four groups: vehicle, carboplatin alone (10 mg/kg weekly intraperitoneal (i.p.) injection), etomoxir alone (40 mg/kg daily i.p. injection), and combination of carboplatin (10 mg/kg weekly i.p. injection) and etomoxir (40 mg/kg daily i.p. injection). Body weights and habitus were monitored twice per week and mice were sacrificed when the largest tumor exceeded 1500 mm^3 or if human endpoints were reached earlier.
# A patient-derived xenograft (PDX) model rendered platinum resistant through repeated exposure to carboplatin in vivo as described previously was used to test whether interruption of fatty acid oxidation could sensitize ovarian tumors to platinum in vivo.
# [12] = test system: OVCAR5-cisR cells; experiment: Fatty acid oxidation assay (extracellular oxygen consumption kit); assay type: cell-based, human; conditions: 40 μM etomoxir over 3 hours
# Method: (§6) Fatty acid oxidation (FAO) was measured using a commercial kit (Abcam, #ab217602) following the provided protocol. Briefly, cells were seeded in 96-well plate with 150 k cells/well. After incubation overnight, medium was replaced. 10 μL of Extracellular O2 consumption reagent, and 2 drops of high-sensitivity mineral oil (pre-heated at 37° C.) were added to each well. Fluorescence was measured in plate reader at 2 min intervals for 180 min at excitation/emission=380/650 nm. Etomoxir was added at final concentration of 40 μM to block FAO. Oxygen consumption rate (OCR) is presented as AFluorescence intensity/Min/cell and FAO rate is calculated as OCRFAO=OCRtotal−OCREtomoxir. At least three replicates were included for each measurement.
# [13] = test system: OVCAR5 cells; experiment: as above; assay type: cell-based, human; conditions: 40 μM etomoxir over 3 hours
# Method: as §6
# [14] = test system: COV362-cisR cells; experiment: Cell viability assay (dose-response); assay type: cell-based, human
# Method: as §1, §2, §3
# [15] = test system: OVCAR5-cisR cells; experiment: OCR and ECAR by Seahorse analysis; assay type: cell-based, human; conditions: etomoxir treatment
# Method: (§7) Cell lines were seeded in a Seahorse® XF96 Cell Culture Microplate (Agilent) at density of 6×10^4 (OVCAR5 pair) or 4×10^4 (PEO pair) per well. After incubation at 37° C. overnight for cell attachment, OCR, and extracellular acidification rate (ECAR) were measured through Seahorse® XFe96 Analyzer (Agilent). Measurement time was 30 seconds following 3 minutes mixture and 30 seconds waiting time. First three cycles were used for basal respiration measurement. […] Basal respiration, ATP production and maximal respiration reduction were calculated following the manufacturer's instructions.
# [16] = test system: OVCAR5 cells; experiment: OCR and ECAR by Seahorse analysis; assay type: cell-based, human; conditions: etomoxir treatment
# Method: as §7
# [17] = test system: OVCAR5-cisR cells; experiment: ATP/ADP assay; assay type: cell-based, human; conditions: 3.3 μM cisplatin with 100 μM palmitic acid for 6 hours
# Method: NADP/NADPH and ADP/ATP were measured by using commercial kits (Abcam, #ab65349 and #ab65313). For NADPH measurement, cells (˜1×10^6 cells) were pelleted and extracted using NADPH/NADP extraction buffer. Total NADP/NADPH was directly measured using the assay kit and NADPH alone was measured after decomposing NADP by heating at 60° C. for 30 min. Absorption at 450 nm was measured by plate reader (Molecular Devices, SpectraMax i3x). For ATP measurement, cells were seeded in 96-well plates. ATP was measured directly and total ATP+ADP was measured by converting ADP to ATP. The luminescent signal was measured by plate reader. At least three replicates were included for each measurement.
compound,measurement,setting,value
CCc1c(-c2ccccc2)c(-c2ccccc2)nn1-c1ccccc1-c1cccc(OCC(=O)O)c1 [BMS309403],dose-response to cisplatin with supplemental BMS treatment,[1]; OVCAR5-cisR cells,reduced resistance to cisplatin
same,dose-response to cisplatin with supplemental BMS treatment,[2],less obvious
same,dose-response to cisplatin with supplemental BMS treatment,[3],reduced resistance to cisplatin
same,dose-response to cisplatin with supplemental BMS treatment,[4],less obvious
same,dose-response to cisplatin with supplemental BMS treatment,[5],less obvious
same,dose-response to cisplatin with supplemental BMS treatment,[6]; PEO4 cells,reduced resistance to cisplatin
same,PA-d31 uptake (C-D SRS signal intensity),[7],significantly reduced
same,fatty acid uptake (C-D SRS signal intensity),[8],Suppression of fatty acid uptake
C=C1C(=O)OC(CCCCCCCC)C1C(=O)O (centres unmarked) [C-75],increased lipid content in SKOV3-cisR compared with SKOV3,[9],did not affect the increased lipid content
N.N.O=C([O-])C1(C(=O)[O-])CCC1.[Pt+2] [carboplatin],Tumor growth (weights of xenografts),[10],suppressed
same,tumor growth (total tumor volume),"[11]; carboplatin alone, 10 mg/kg weekly i.p.",slight reduction of tumor growth
CCOC(=O)[C@@]1(CCCCCCOc2ccc(Cl)cc2)CO1 [etomoxir],oxygen consumption,[12],significantly reduced
same,oxygen consumption,[13],did not induce an obvious change
same,dose-response to cisplatin curves with etomoxir treatment,"[1]; OVCAR5-cisR cells, etomoxir 40 μM",significantly left shifted
same,"dose-response to etomoxir, compared to parental cell line",[1]; OVCAR5-cisR versus OVCAR5,Higher sensitivity
same,dose-response to cisplatin curves with etomoxir treatment,"[14]; COV362-cisR cells, etomoxir 40 μM",significantly left shifted
same,"dose-response to etomoxir, compared to parental cell line",[14]; COV362-cisR versus COV362,Higher sensitivity
same,dose-response to cisplatin curves with etomoxir treatment,"[6]; PEO4 cells, etomoxir 40 μM",significantly left shifted
same,"dose-response to etomoxir, compared to parental cell line",[6]; PEO4 versus PEO1,Higher sensitivity
same,OCR (Seahorse FAO assay),[15],obvious reduction of OCR
same,OCR (Seahorse FAO assay),[16],less sensitive
same,tumor growth (total tumor volume),"[11]; etomoxir alone, 40 mg/kg daily i.p.",slight reduction of tumor growth
CCCCCCCCCCCCCCCC(=O)O [palmitic acid],ATP level (ATP/ADP ratio) on supplementation,[17],significantly increased
